Assay results reported in US20250270159A1, “1-(CYCLOBUTANEMETHYLIDENE)-2, 4, 5-TRIMETHOXYBENZENE COMPOUND AND PREPARATION METHOD AND USE THEREOF” (CHENGDU XINRUI TAIKANG TECHNOLOGY CO., LTD., priority 2023, published 2025).

What was measured:
[1] = tested on: Parkinson's disease (PD) mice, 6-OHDA method; assay: 6-OHDA Parkinson's disease mice, hanging experiment; type: in vivo, C57 mice; conditions: Group D, CTMB 20 mg/kg ip, cut-off 60 s
Experimental: (§1) The mice were randomly divided into a sham operation group (group S, given a blank emulsion with a volume equal to that of the administered group), a model group (group M, given a blank emulsion with a volume equal to that of the administered group), a CTMB group (20 mg/kg, group D), and a levodopa group (levodopa: benserazide hydrochloride=4:1, 12 mg/kg, group L), each group included 10-12 mice, and all of them were administered intraperitoneally.
Preoperatively, mice were fasted for 12 h, and mice were anesthetized with 4% isoflurane induction and maintained with 1.5% isoflurane. The mice were subsequently immobilized on a brain stereotaxic apparatus. The bregma and lambda points were exposed by gently wiping the cranial surface with a cotton swab after cutting the scalp. The stereotaxic apparatus was adjusted to align the heights of the bregma and lambda points, thereby leveling the skull. The bregma point was designated as the origin, the coordinates where the injection site was located were located, and the drill was used to drill a small hole in the skull above the injection site.
6-OHDA (12.5 μg/μL) was injected into the striatum region (AP+0.5 mm; ML+2.00 mm; DV-3.00 mm and-2.00 mm) of the mice, and 1 μL 6-OHDA was injected into each of the two points at a rate of 0.5 μL/min. The needle was left in place for 3 min after the injection was completed, and then the injection needle was lifted, and the scalp of the mice was sutured and disinfected. The sham operation group was injected with an equal volume of saline containing 0.02% ascorbic acid, and other operations were performed as above. After the procedure, the mice were placed in the cage at an appropriate temperature. After awakening from anesthesia, the mice were kept normally.
The hanging experiment: normal mice have climbing activity, which requires proper grip strength and motor coordination, so the hanging experiment may be used to examine motor dysfunction in mice. A metal rod with a diameter of 1.5 mm was placed horizontally on top of the box, and a distance from the metal rod to the bottom of the box was 30 cm. […] Measurement was performed twice, with an interval of 1 min or more between each test, and the results were averaged over the two times.
The motor function of the mice was comprehensively assessed using the rod-climbing experiment and the hanging experiment at 1, 2, 3, and 4 weeks after drug administration.

[2] = tested on: neurons of substantia nigra region and striatum of PD mice; assay: HE staining of substantia nigra and striatum of PD mice; type: in vivo, C57 mice; conditions: Group D, CTMB 20 mg/kg ip, 4 weeks; compared with model group; FIG. 5-7
Experimental: as §1
After completing the evaluation of motor function after 4 weeks of drug administration, the mice were deeply anesthetized, perfused with 20 mL of saline and 20 mL of 4% paraformaldehyde via the heart, and the brains were rapidly severed and extracted from the head, which were then preserved and fixed in 4% paraformaldehyde for 72 h after removal, and then embedded with paraffin to prepare the slices with a thickness of 4 μm for subsequent pathological and histological studies.
Hematoxylin-eosin (HE) staining may be used to observe changes in the pathological condition of brain tissue. […]

[3] = tested on: ischemic stroke induced by the filament technique in rats; assay: Long-term ischemic stroke (MCAO), neurological deficit score (mNSS); type: in vivo
Experimental: The rats were randomly divided into a sham operation group (Sham group, given a blank emulsion with a volume equal to that of the high-dose CTMB group), a model group (Vehicle group, given a blank emulsion with a volume equal to that of the high-dose CTMB group), a low-dose CTMB group (CTMB-L group, 10 mg/kg), a high-dose CTMB group (CTMB-H group, 20 mg/kg), and an edaravone dexborneol injection concentrated solution group (EDB group, commercially available, 3 mg/kg). 10 rats were included in each group, which were administered by intraperitoneal injection. It should be noted that in the experiment, the mode of administration for rats was intraperitoneal injection, and a ratio of the effective dose of CTMB, the active ingredient in the emulsion injection, to the unit mass of the human body was within a range of 0.2 mg-4.0 mg/kg, which referred to the ratio of the effective dose of CTMB, the active ingredient in the emulsion injection, to the unit mass of the human body during intravenous infusion, which was extrapolated from the effective dose of the rats. Considering the different bioavailability, peak concentration, and peak time of the drug due to different species and different modes of administration, the effective dose of the active ingredient CTMB in the emulsion injection to the unit mass of human body was finally determined to be 0.2 mg-4.0 mg/kg through conversion.
The rats were fasted for 12 h before procedure, and the rats were anesthetized with 10% chloral hydrate (350 mg/kg, i.p.). The rats were fixed in the supine position, and the body temperature was maintained at about 37° C. For neck preparation, a median neck incision was made, the muscle and fascia were separated along the inner edge of the sternocleidomastoid muscle to expose the right side, the common carotid artery (CCA), external carotid artery (ECA), and internal carotid artery (ICA) were separated bluntly, and the lines were disposed of proximally in the CCA proximal end, ICA, and ECA for backup. The CCA proximal end and ECA were ligatured, and an arterial clip was used to temporarily close the ICA, then a small hole was poked at a position of CCA having about 4 mm from the bifurcation with a needle. The filament was inserted into the ICA through the CCA, the arterial clipped on ICA was loosened, and the filament was slowly advanced. When the mark on the filament reached the bifurcation and a slight resistance was felt, the thin wire at ICA was tightened, and saline was used to clean the wound and then suture was performed. The sham procedure was the same as the experimental group except that no filament was inserted. After anesthesia, the rats were raised normally.
Experimental materials, groups (n=10-15), modeling manner, and scoring criteria were the same as the acute phase of treatment. After 2 h of modeling by the filament technique, the drugs were immediately administered according to the grouped administration plan, and thereafter the drugs continued to be administered once a day for 14 days, and modified mNSS score was performed on days 1, 4, 7, and 14.

[4] = CTMB-H 20 mg/kg ip once a day for 14 days
[5] = CTMB-L 10 mg/kg ip once a day for 14 days

COc1cc(OC)c(OC)cc1C=C1CCC1 [CTMB, 1-(cyclobutylidenemethyl)-2,4,5-trimethoxybenzene]
Hanging time, Before administration ([1]; baseline 2 weeks after 6-OHDA): 45.5 ± 14.6 s | Hanging time, 1 week of administration [1]: 51.8 ± 14.1 s | Hanging time, 2 weeks of administration [1]: 56.8 ± 5.2 s | Hanging time, 3 weeks of administration [1]: 58.8 ± 2.8 s | Hanging time, 4 weeks of administration [1]: 57.6 ± 4.6 s | degree of pathological damage to the substantia nigra region and striatum [2]: reduced | toxic side effects associated with administration ([3]; 10 and 20 mg/kg ip once a day for 14 days): No toxic side effects | mNSS score, Day 1 [3, 4]: 5.69 ± 2.13^##, ** | mNSS score, Day 4 [3, 4]: 3.75 ± 1.67^##, ** | mNSS score, Day 7 [3, 4]: 2.83 ± 1.17^##, * | mNSS score, Day 14 [3, 4]: 2.45 ± 1.36^##, * | mNSS score, Day 1 [3, 5]: 6.45 ± 2.37^##, * | mNSS score, Day 4 [3, 5]: 3.65 ± 1.29^##, ** | mNSS score, Day 7 [3, 5]: 3.38 ± 0.83 | mNSS score, Day 14 [3, 5]: 2.94 ± 1.56
